Assay results: the NIST ThermoML archive (doi:10.1016/j.jct.2017.02.010)

Settings: Gas chromatography

CC1=C2CC[C@@H](C)C[C@H]2OC1=O [(-)-mintlactone]
Metastable liquid
Settings	vapor or sublimation pressure [kPa]
298.15 K	0.00033
305 K	0.00063
310 K	0.001
315 K	0.0015
320 K	0.0024
325 K	0.0035
330 K	0.0053
335 K	0.0077
340 K	0.011
345 K	0.016
350 K	0.023

CC1=C2CC[C@@H](C)C[C@@H]2OC1=O [(.+-.)-isomintlactone]
Metastable liquid
Settings	vapor or sublimation pressure [kPa]
298.15 K	0.00026
305 K	0.00051
310 K	0.00081
315 K	0.0013
320 K	0.0019
325 K	0.0029
330 K	0.0044
335 K	0.0064
340 K	0.0093
345 K	0.013
350 K	0.019

CCCC[C@H]1OC(=O)C[C@H]1C [cis-whiskey lactone]
Liquid
Settings	vapor or sublimation pressure [kPa]
298.15 K	0.0015
305 K	0.0028
310 K	0.0043
315 K	0.0064
320 K	0.0095
325 K	0.014
330 K	0.02
335 K	0.029
340 K	0.041
345 K	0.057
350 K	0.079

CCCC[C@H]1OC(=O)C[C@@H]1C [trans-whiskey lactone]
Liquid
Settings	vapor or sublimation pressure [kPa]
298.15 K	0.002
305 K	0.0036
310 K	0.0056
315 K	0.0084
320 K	0.012
325 K	0.018
330 K	0.026
335 K	0.037
340 K	0.052
345 K	0.072
350 K	0.099
